A short description of series [1]: Differential scanning calorimetry for thermal stability. Particulars: DSC, measure of thermal stability.
Procedure: Differential scanning calorimetry (DSC) was used to investigate the thermal stability as well as interaction between liposomes and entrapped protein.
For thermal stability analysis of liposomes and encapsulated protein, two mg of standard lipids, protein and liposome samples were loaded in aluminum pans along with the standard reference aluminum in the differential scanning calorimeter (Shimadzu DSC 60). The thermal profiles were recorded between 10° C. and 180° C. at a scan rate of 15° C./min for three cycles.
For series [2] the following is noted: cited from earlier work.
The conditions of series [3]: oral, in the absence of decarboxylase inhibitors; cited from earlier work.
Series [4] in a line: L-DOPA oxidation in solution (UV-Vis, LC/MS). Format: physicochemical. The protocol: The solution was stored with minimal exposure to light. […] In order to accelerate the complete oxidation of L-DOPA starting material, the substance was reacted in at pH 10. […] These hydrophobic oxidation products were separated and collected for in vitro experiments with epithelialcells.
LC/MS analysis was performed using an LCQ Advantage Mass Spectrometer System with a Surveyor LC Pump and PDA Detector (Thermo Finnigan). Separations were performed on a 100 mm×3.0 mm Kinetex C18 column. Mobile phase was 0.1% formic acid in MeOH (B) balanced with water. […] Absorbance was monitored at 280 and 320 nm. For ESI-MS conditions, capillary temperature was 200° C. and spray voltage was set to 4.5 kV. […] Full spectra were collected between m/z range of 200-1000.

Series [5] in a line: Intravitreal drug release and toxicity in rabbit's eye (Fluorotron, ELISA, histopathology). Format: in vivo, Oryctolagus cuniculus (Dutch belted rabbits). Particulars: single intravitreal injection. The protocol: The efficacy of the liposomes and the combination product has been tested using rabbit models. The experimental design of this experiment involving Oryctolagus cuniculus (Dutch belted rabbits) was approved by the Northern Illinois University Institutional Animal Care and Use Committee (IACUC) and is as follows. Rabbits were divided into 4 groups and each rabbit was injected with the formulation in the right eye using left eye as control.
Drug release profiles in the rabbit's eye over a period of time was measured non-invasively using the Fluorotron. […] Light re-emitted (reflection and fluorescence) by the fluorescent tag on the protein is sampled from the 1.9×0.1 mm slit, aligned to the excitation and defined by an aperture Rd (which is confocal to Re). […] The configuration of these pupils is in the plane of the subject's pupil minimizes contributions from the fluorescence outside of the measurement point by separating the excitation and detection paths. Another band-pass filter rejects reflected excitation light, and the fluorescence collected by aperture Rd is detected using a red-extended end-on photomultiplier tube selected for low (<100 count/sec.) dark noise. As the focus lens is driven forward the emission signal is continuously monitored from retina to cornea, giving an intensity output. […]
For orientation: In an ELISA, binding on a coated surface is turned into a signal by an enzyme label.

Another series has as its system RPE cells. Particulars: 2.5 mg/ml; cited from earlier work.
Another series has as its system ARPE-19 cells. The experiment in a line: MTT cell viability with Avastin and Avastin liposomes. In kind it is cell-based. The note with it: exposed to 2 mg of the antibody.
For series [6] the following is noted: cited from earlier work. This is another data set of the same source.

Procedure for ARPE-19 cells: ARPE-19 cells purchased from American Type Culture Collection were used. […] Cells were plated in 12-well plates with an initial seeding density of 5×10^4 cells per ml in each plate. Cells were grown to confluency for 4 days prior to experimentation; 12-well plates were used for MTT assays. 1.5 ml of 25 mg/ml Avastin solution was sterile filtered to create a stock solution that was transferred to a sterile centrifuge tube. Each well of the 12 well plate had its media aspirated out and was then rinsed with buffer which was also aspirated out. […] Enough media was added to each well to create a total volume of 1 ml in each well. […] 1.3 ml of 10% MTT 5 mg/ml in PBS and 11.7 ml of 90% media (with phenol red) was used. MTT in PBS was added to the media in a centrifuge tube and then sterile filtered. The filtered mixture was then plated on the 12 well plate (1 ml per well). The plate was then incubated for 90 minutes. After incubation, the MTT media was aspirated. 1 ml of DMSO per well was added. The MTT assay was read at 560 nm.

For `CC(C)CCC[C@@H](C)[C@H]1CC[C@H]2[C@@H]3CC=C4C[C@@H](O)CC[C@]4(C)[C@H]3CC[C@]12C` [Cholesterol], the “Melting temperature, Tm” value in series [1] is listed as roughly 154° ° C.
On the same count and under the same terms, then `CCCCCCCCCCCCCC(=O)OC[C@H](COP(=O)([O-])OCC[N+](C)(C)C)OC(=O)CCCCCCCCCCCCC` [DMPC], with roughly 42° ° C; and `CCCCCCCC/C=C\CCCCCCCC(=O)OC[C@H](COP(=O)(O)OCCN)OC(=O)CCCCCCC/C=C\CCCCCCCC` [DOPE], with roughly 63° ° C.
Same read-out and setting: then `CCCCCCCCCCCCCCCCCC(=O)OCC(COP(=O)(O)OCC(O)CO)OC(=O)CCCCCCCCCCCCCCCCC` (stereo not drawn) [DSPG], with roughly 40° ° C.
Consider `N[C@@H](Cc1ccc(O)c(O)c1)C(=O)O` [L-DOPA], for which the “drug oxidized to melanin” value in series [2] (after 24 hr in neutral pH) was 47%. The drug oxidized entry in series [2] (under basic conditions) is “at least 50.9%”. In series [3], the “unmetabolized drug reaching the brain” value is on record as “less than 1%”. Besides, the “oxidation of L-DOPA” value in series [4] (PBS pH 7.4, after 3 days, minimal exposure to light) is given as “does not undergo complete oxidation”; in series [4] (pH 7.4 solution, after 35 days) it was “substantial oxidation”; in series [4] (pH 10, after 24 hours), “completely consumed”.
For “Bevacizumab: anti-VEGF antibody, anti-angiogenic agent”, the “Time of release of a therapeutic concentrate” value in series [5] stood at 5 weeks. Also, in the series with RPE cells, the “effect on RPE cells” value is “cytotoxic effects”. Also, in the series on ARPE-19 cells, the “cell viability (MTT)” value is “decreased slightly”. In addition, the intravitreal half-life entry in series [6] (intravitreal) was “about 4.32 days”. Also, the “concentration in the vitreous” value in series [6] (maintained over a period of 30 days) is reported as “about 10 μg/ml”.

These data come from patent publication US20190307691A1, “HYDROGELS WITH LIPOSOMES FOR CONTROLLED RELEASE OF DRUGS” (NORTHERN ILLINOIS RESEARCH FOUNDATION, priority 2018, published 2019).
